Data: ChEMBL document CHEMBL5230087, “Inhibitors of SARS-CoV-2 Entry: Current and Future Opportunities” (J Med Chem, 2020)
Square brackets hold non-standard residues; d marks the D form. Peptide text beside a SMILES is read from it. * marks the point of attachment. ξ: configuration not given here. ξF = NC(Cc1ccccc1)C(=O)O; Cbz = O=C(OCc1ccccc1)*

Experiments:
[1] = Inhibition of MERS-CoV Main protease; set-up: species or system Middle East respiratory syndrome-related coronavirus
Mus musculus = assay: Antiviral activity against MERS-COV infected in BALB/c mouse at 5 mg/kg; format: functional, organism-based
Human coronavirus OC43 = assay: Antiviral activity against HCoV-OC43 assessed as viral growth inhibition; format: functional, organism-based; settings: Betacoronavirus 1
Human coronavirus 229E = assay: Antiviral activity against HCoV-229E; format: functional, organism-based
[2] = Antiviral activity against HCoV-NL63 assessed as viral growth inhibition; format: functional, Human coronavirus NL63
[3] = Cytotoxicity against african green monkey Vero cells incubated for 3 days; format: toxicity, cell-based; settings: chlorocebus sabaeus, time 3 day
[4] = biological target: T1, Angiotensin-converting enzyme 2 (Homo sapiens, UniProt Q9BYF1); assay: Inhibition of human recombinant ACE2
Procathepsin L = Procathepsin L (Homo sapiens, UniProt P07711); assay: Inhibition of human recombinant Cathepsin L […] using Z-FR-AMC as substrate incubated for 30 mins by fluorometric assay
[5] = Inhibition of clathrin mediated endocytosis (unknown origin); set-up: species or system Homo sapiens
[6] = biological target: T1, Angiotensin-converting enzyme 2; assay: Inhibition of human recombinant ACE2 at 50 uM using (7Mca-Y-V-A- D -A-P- K(Knp) as a flurogenic substrate measured after 10 mins by fluorescence based analysis
SARS-CoV = assay: Antiviral activity against SARS-CoV infected in African green monkey Vero cells assessed as viral growth inhibition; format: functional, organism-based; settings: Severe acute respiratory syndrome-related coronavirus
[7] = Antiviral activity against pseudovirus SARS-CoV spike protein infected in HeLa cells over expressing ACE2 assessed as inhibition on pseudovirus infection incubated for 52 hrs by luminescence based microplate reader analysis; format: functional, cell-based
[8] = Inhibition of MERS-CoV S protein RBD (E367 to Y606 residues) expressed in Fc portion of the human IgG1 in CHO cells by chromatography method; set-up: species or system Middle East respiratory syndrome-related coronavirus
[9] = biological target: T1, Angiotensin-converting enzyme 2; assay: Inhibition of SARS-CoV S binding to human recombinant ACE2 expressed in Escherichia coli BL21(DE3) incubated for 2 hrs by ELISA method
SARS-CoV-2 = assay: Antiviral activity against SARS-COV2 infected in African green monkey Vero B cells incubated for 48 hrs by ELISA; format: functional, organism-based; settings: Severe acute respiratory syndrome coronavirus 2, Vero B
[10] = Selectivity index, ratio of CC50 for African green monkey Vero cells to EC50 for SARS-CoV-2 nCoV-2019; format: toxicity; settings: read-out: Selectivity Index
[11] = biological target: T1, Angiotensin-converting enzyme 2; assay: Binding affinity to ACE2 (unknown origin) at 10 uM assessed as inhibition constant
[12] = biological target: T1, Angiotensin-converting enzyme 2; assay: Inhibition of human ACE2 (unknown origin) at 0.5 uM
Ebolavirus = assay: microbe, parasite or virus in culture; format: functional, organism-based; settings: Orthoebolavirus

T1 sequence (Q9BYF1 whole entry): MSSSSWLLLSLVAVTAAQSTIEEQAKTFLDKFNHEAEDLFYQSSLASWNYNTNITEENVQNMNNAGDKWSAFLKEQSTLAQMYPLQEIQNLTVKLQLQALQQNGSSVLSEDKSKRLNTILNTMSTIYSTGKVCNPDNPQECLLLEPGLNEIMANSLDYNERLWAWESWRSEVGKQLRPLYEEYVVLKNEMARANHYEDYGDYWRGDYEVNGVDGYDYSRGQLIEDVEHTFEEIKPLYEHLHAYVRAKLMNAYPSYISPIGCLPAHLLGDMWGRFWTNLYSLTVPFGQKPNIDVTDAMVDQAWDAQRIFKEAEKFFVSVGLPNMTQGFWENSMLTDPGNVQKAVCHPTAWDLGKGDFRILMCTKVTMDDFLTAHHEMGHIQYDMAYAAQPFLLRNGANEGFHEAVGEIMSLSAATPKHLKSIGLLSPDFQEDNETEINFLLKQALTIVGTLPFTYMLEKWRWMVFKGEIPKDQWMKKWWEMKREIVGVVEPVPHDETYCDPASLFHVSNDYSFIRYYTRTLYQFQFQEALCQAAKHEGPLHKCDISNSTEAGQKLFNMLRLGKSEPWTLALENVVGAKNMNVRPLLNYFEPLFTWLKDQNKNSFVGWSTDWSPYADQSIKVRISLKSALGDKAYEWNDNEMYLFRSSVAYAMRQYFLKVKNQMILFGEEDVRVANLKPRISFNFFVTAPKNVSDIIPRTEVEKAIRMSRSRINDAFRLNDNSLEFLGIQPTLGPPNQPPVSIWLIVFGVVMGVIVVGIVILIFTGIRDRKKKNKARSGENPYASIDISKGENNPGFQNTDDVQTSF
Sequence of Procathepsin L (P07711 whole entry): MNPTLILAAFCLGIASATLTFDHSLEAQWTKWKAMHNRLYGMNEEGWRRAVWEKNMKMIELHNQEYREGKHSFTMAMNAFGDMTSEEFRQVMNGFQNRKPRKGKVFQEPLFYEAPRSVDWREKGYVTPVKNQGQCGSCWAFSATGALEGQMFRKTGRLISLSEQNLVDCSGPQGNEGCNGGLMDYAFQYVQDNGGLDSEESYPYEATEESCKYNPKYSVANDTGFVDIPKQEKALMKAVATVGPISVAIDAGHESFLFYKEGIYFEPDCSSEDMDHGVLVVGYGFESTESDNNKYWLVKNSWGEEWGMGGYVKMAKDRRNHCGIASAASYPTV

Compound: CC[C@H](C)[C@H](NC(=O)[C@H](C)NC(=O)[C@H](CCC(=O)O)NC(=O)[C@H](CCC(=O)O)NC(=O)[C@H](CC(C)C)NC(=O)[C@H](CCCCN)NC(=O)[C@H](CCCCN)NC(=O)[C@H](CCSC)NC(=O)[C@H](CCC(=O)O)NC(=O)[C@H](Cc1ccc(O)cc1)NC(=O)[C@H](CCC(=O)O)NC(=O)[C@H](CC(C)C)NC(=O)[C@H](CC(=O)O)NC(=O)[C@H](CC(C)C)NC(=O)[C@H](Cc1ccccc1)NC(=O)[C@@H](NC(=O)[C@@H](NC(=O)[C@H](CC(N)=O)NC(=O)[C@@H](NC(=O)[C@H](CCC(N)=O)NC(=O)[C@H](CC(=O)O)NC(=O)[C@H](CC(C)C)NC(=O)[C@@H](N)CO)[C@@H](C)CC)C(C)C)[C@@H](C)O)C(=O)N[C@@H](CCCCN)C(=O)N[C@@H](CCCCN)C(=O)N[C@@H](CC(C)C)C(=O)N[C@@H](CCC(=O)O)C(=O)N[C@@H](CCC(=O)O)C(=O)N[C@@H](CO)C(=O)N[C@@H](Cc1ccc(O)cc1)C(=O)N[C@H](C(=O)N[C@@H](CC(=O)O)C(=O)N[C@@H](CC(C)C)C(=O)N[C@@H](CCCCN)C(=O)N[C@@H](CCC(=O)O)C(=O)N[C@@H](CC(C)C)C(=O)O)[C@@H](C)CC
- IC50 [1]: 0.19 µM
- IC50 (Mus musculus): 2.38 µM
- IC50 (Human coronavirus OC43): 1.81 µM
- IC50 (Human coronavirus 229E): 3.35 µM
- IC50 [2]: 6.02 µM

Compound: O=C(Nc1ccc2c(c1)C(=O)c1ccccc1C2=O)c1ccccc1
- CC50 at 72 h [3]: 20 µM
- IC50 [4]: 9.7 µM

Compound: CN(C)C(=O)COC(=O)Cc1ccc(OC(=O)c2ccc(NC(=N)N)cc2)cc1 [CAMOSTAT]
- IC50 (Procathepsin L): 10 µM

Compound: CC(CN1c2ccccc2Sc2ccccc21)N(C)C (stereo unspecified) [PROMETHAZINE]
- IC50 [5]: 7.48 µM

Compound: CCN(CCO)CCCC(C)Nc1ccnc2cc(Cl)ccc12 (stereo unspecified) [HYDROXYCHLOROQUINE]
- IC50 [6]: 0.72 µM

Compound: CC[C@H](C)[C@H](NC(=O)[C@H](C)NC(=O)[C@H](CCCCN)NC(=O)[C@H](CC(N)=O)NC(=O)[C@H](Cc1ccccc1)NC(=O)[C@H](CCC(N)=O)NC(=O)[C@H](CC(N)=O)NC(=O)[C@H](C)NC(=O)[C@@H](NC(=O)[C@H](CCC(N)=O)NC(=O)[C@H](CCCCN)NC(=O)[C@H](CCC(N)=O)NC(=O)[C@H](CC(N)=O)NC(=O)[C@H](CCC(=O)O)NC(=O)[C@@H](N)Cc1ccc(O)cc1)[C@@H](C)CC)C(=O)N[C@@H](CO)C(=O)N[C@@H](CCC(N)=O)C(=O)N[C@H](C(=O)N[C@@H](CCC(N)=O)C(=O)N[C@@H](CCC(=O)O)C(=O)N[C@@H](CO)C(=O)N[C@@H](CC(C)C)C(=O)N[C@H](C(=O)N[C@H](C(=O)N[C@H](C(=O)N[C@@H](CO)C(=O)N[C@H](C(=O)N[C@@H](C)C(=O)O)[C@@H](C)O)[C@@H](C)O)[C@@H](C)O)[C@@H](C)O)[C@@H](C)CC
- EC50 (SARS-CoV): 1.61 µM

Compound: OC(COc1cccc(OCC(O)CN2CCCCC2)c1)CN1CCCCC1 (stereo unspecified)
- EC50 [7]: 3 µM

Compound: CC(C)CC(CC(=O)NO)C(=O)NC(C(=O)NC(C)C(=O)NCCN)C(C)(C)C (stereo unspecified)
- IC50 [6]: 0.2 µM

Compound: CN(C)CCCN1c2ccccc2Sc2ccc(Cl)cc21 [CHLORPROMAZINE]
- IC50 [5]: 7.24 µM

Compound: CN1CCN(C(=O)N[C@@H](Cc2ccccc2)C(=O)N[C@H](/C=C/S(=O)(=O)c2ccccc2)CCc2ccccc2)CC1 [K-777]
- CC50 at 72 h [3]: > 10 µM
- IC50 [8]: 0.0461 µM
- IC50 (Human coronavirus 229E): 0.00148 µM
- IC50 [2]: 0.00678 µM

Compound: COc1ccc(S(=O)(=O)O)cc1/N=N/c1c(S(=O)(=O)O)cc2cc(Nc3nc(Nc4ccccc4)nc(Nc4cc(C)c(/N=N/c5cc(S(=O)(=O)O)cc6cc(S(=O)(=O)O)cc(O)c56)cc4OC)n3)ccc2c1O
- CC50 at 72 h [3]: 26.9 µM

Compound: CC[C@H](C)[C@H](NC(=O)CNC(=O)[C@@H](NC(=O)[C@@H](NC(=O)[C@@H](NC(=O)[C@H](Cc1ccc(O)cc1)NC(=O)[C@@H](N)Cc1ccccc1)[C@@H](C)O)[C@@H](C)O)[C@@H](C)O)C(=O)NCC(=O)N[C@@H](Cc1ccc(O)cc1)C(=O)N[C@@H](CCC(N)=O)C(=O)N1CCC[C@@H]1C(=O)N[C@H](Cc1ccc(O)cc1)C(=O)O
- IC50 [9]: 0.00699 µM

Compound: CCC[C@@H]([C@@H](CC(C)C)C(=O)N[C@@H](CCCCNC(=O)OCc1ccccc1)C(=O)Nc1nccs1)N(O)C=O
- IC50 [6]: 0.001 µM

Compound: C/C(=N/NC(N)=S)c1cccs1
- CC50 at 72 h [3]: 100 µM
- EC50 [7]: 6.4 µM
- IC50 (Procathepsin L): 5.33 µM

Compound: CC(C)[C@H](NC(=O)OCc1ccccc1)C(=O)NC(C=O)Cc1ccccc1 (stereo partly drawn) (Cbz-Val-[ξF]-aldehyde)
- EC50 [7]: 0.1 µM

Compound: CC[C@H](C)[C@@H](NC(=O)[C@H]1CCCN1C(=O)[C@H](CCC(N)=O)NC(=O)[C@H](Cc1ccc(O)cc1)NC(=O)CNC(=O)[C@H](CCCCN)NC(=O)[C@H](Cc1ccc(O)cc1)NC(=O)[C@@H](NC(=O)[C@H](Cc1ccc(O)cc1)NC(=O)[C@H](CC(C)C)NC(=O)[C@H](Cc1ccccc1)NC(=O)CN)C(C)C)C(=O)O
- IC50 [9]: 0.0043 µM

Compound: CC[C@H](C)[C@H](NC(=O)[C@H](CO)NC(=O)[C@H](CCCCN)NC(=O)[C@H](CCC(N)=O)NC(=O)[C@H](CO)NC(=O)[C@@H](NC(=O)[C@@H](N)CO)[C@@H](C)O)C(=O)N[C@H](C(=O)N[C@@H](C)C(=O)N[C@@H](Cc1ccc(O)cc1)C(=O)N[C@H](C(=O)N[C@@H](CCSC)C(=O)O)[C@@H](C)O)C(C)C
- IC50 [9]: 0.00188 µM

Compound: CC[C@H](C)[C@H](NC(=O)[C@H](Cc1ccc(O)cc1)NC(=O)[C@H](CO)NC(=O)[C@H](CCC(=O)O)NC(=O)[C@H](CC(N)=O)NC(=O)[C@H](CC(C)C)NC(=O)[C@H](C)NC(=O)[C@H](CCCCN)NC(=O)[C@@H](NC(=O)[C@@H](NC(=O)[C@H](CCC(N)=O)NC(=O)[C@H](CCC(N)=O)NC(=O)[C@H](CC(C)C)NC(=O)[C@H](CO)NC(=O)[C@H](CC(C)C)NC(=O)[C@H](CCSC)NC(=O)[C@H](CCC(=O)O)NC(=O)[C@H](Cc1ccc(O)cc1)NC(=O)[C@@H](NC(=O)[C@H](CC(C)C)NC(=O)[C@H](CC(=O)O)NC(=O)[C@H](CC(C)C)NC(=O)[C@H](CC(C)C)NC(=O)[C@@H](NC(=O)[C@@H](NC(=O)[C@H](CC(N)=O)NC(=O)[C@@H](NC(=O)[C@H](CCC(N)=O)NC(=O)[C@@H](NC(=O)[C@H](CC(C)C)NC(=O)[C@@H](N)CO)[C@@H](C)O)[C@@H](C)CC)[C@@H](C)O)[C@@H](C)O)[C@@H](C)O)C(C)C)C(C)C)C(=O)N[C@@H](CC(=O)O)C(=O)N[C@@H](CC(C)C)C(=O)N[C@@H](CCCCN)C(=O)N[C@@H](CCC(=O)O)C(=O)N[C@@H](CC(C)C)C(=O)O
- EC50 (SARS-CoV-2): > 1000 µM
- IC50 [8]: 0.6 µM

Compound: O=c1cc(-c2ccc(O)c(O)c2)oc2cc(O)cc(O)c12 [LUTEOLIN]
- CC50 at 72 h [3]: 155 µM
- selectivity ratio [10]: 14.6

Compound: O=C(NC(Cc1ccccc1)C(=O)N1CCC(O)(c2ccc(Br)cc2)CC1)c1ccccc1 (stereo unspecified)
- EC50 (Human coronavirus 229E): 110 µM

Compound: CC(C)CC(CC(=O)NO)C(=O)NC(Cc1ccc2ccccc2c1)C(=O)NC(C)C(N)=O (stereo unspecified)
- IC50 [6]: 0.1 µM

Compound: CCN(CC)CCCC(C)Nc1ccnc2cc(Cl)ccc12 (stereo unspecified) [CHLOROQUINE]
- CC50 at 72 h [3]: > 100 µM
- IC50 [6]: 1.13 µM
- IC50 (SARS-CoV-2): 1.13 µM

Compound: O=C(OC[C@H]1O[C@@H](OC(=O)c2cc(O)c(O)c(O)c2)[C@H](OC(=O)c2cc(O)c(O)c(O)c2)[C@H](OC(=O)c2cc(O)c(O)c(O)c2)[C@@H]1O)c1cc(O)c(O)c(O)c1
- CC50 at 72 h [3]: 1080 µM
- selectivity ratio [10]: 240

Compound: NCCNCCN1CC1
- Ki [11]: 459 µM

Compound: C=C(N[C@@H](CCCN=C(N)N)C(=O)Cl)[C@@H](CCCCN)NC(=O)[C@H](NC(=O)[C@H](CCCN=C(N)N)NC(=O)CCCCCCCCCC)C(C)C
- IC50 (Procathepsin L): 75 µM

Compound: CC(C)C[C@H](NC(=O)[C@@H]1CCCN1C(=O)[C@H](CO)NC(=O)[C@H](CS)NC(=O)[C@H](Cc1cnc[nH]1)NC(=O)[C@H](CO)NC(=O)[C@H](Cc1ccc(O)cc1)NC(=O)[C@H](CC(=O)O)NC(=O)CN)C(=O)N[C@@H](CCCNC(=N)N)C(=O)N[C@@H](Cc1ccc(O)cc1)C(=O)N[C@@H](Cc1ccc(O)cc1)C(=O)N1CCC[C@H]1C(=O)N[C@@H](Cc1c[nH]c2ccccc12)C(=O)N[C@@H](Cc1c[nH]c2ccccc12)C(=O)N[C@@H](CCCCN)C(=O)N[C@@H](CS)C(=O)N[C@H](C(=O)N[C@@H](Cc1ccc(O)cc1)C(=O)N1CCC[C@H]1C(=O)N[C@@H](CC(=O)O)C(=O)N1CCC[C@H]1C(=O)N[C@@H](CCC(=O)O)C(=O)NCC(=O)NCC(=O)NCC(=O)O)[C@@H](C)O
- IC50 [12]: 0.01 µM
- Ki [11]: 0.0028 µM

Compound: CC(C)CC(NC(Cc1cncn1Cc1cc(Cl)cc(Cl)c1)C(=O)O)C(=O)O (stereo unspecified)
- IC50 [6]: 0.00044 µM

Compound: CC(C)(C)OC(=O)N[C@@H](Cc1c[nH]c2ccccc12)C(=O)NNC(=O)OCC(=O)N1CCCc2ccccc21
- EC50 (Ebolavirus): 0.193 µM
- EC50 [7]: 0.273 µM

Compound: O=c1c(O)c(-c2ccc(O)c(O)c2)oc2cc(O)cc(O)c12 [QUERCETIN]
- CC50 at 72 h [3]: 3320 µM
